In patent publication US10100282B2, “Differentiation of pluripotent cells” (FUJIFILM Cellular Dynamics, Inc., priority 2009, dated 2018):

Assays:
hESCs and iPSCs = test: EB formation from single cell suspensions using ROCK inhibitors/PVA; format: cell-based, human; details: 18-24 hrs
Procedure: hESCs and iPSCs adapted to feeder free growth on matrigel maintained using mTESR were preconditioned for three days in the presence of mTesR-GF containing 0.1 ng/ml TGF-β and 20 ng/ml FGF-2. To initiate differentiation from single cells the, the cultures were treated with TrypLE™ (Invitrogen) for 6 minutes and the cells suspension was collected in (1) plain EB basal media, (2) EB basal media containing PVA, (3) EB basal media containing 0.5% PVA and 1 μM H1152 or 10 μM Y27632 ROCK inhibitor, or (4) EB basal media containing only 1 uM H1152 ROCK inhibitor. The cells were collected and washed once and plated in the respective media formulations on a low attachment plate at 37 C. The EB formation status was checked at 18-24 hrs later under a phase contrast microscope.

ROCK = details: cited from earlier work

**Q.** With `Cc1cncc2cccc(S(=O)(=O)N3CCCNCC3C)c12` (stereo in doubt) [H-1152, (S)-(+)-2-Methyl-1-[(4-methyl-5-isoquinolinyl)sulfonyl]homopiperazine] as the molecule, how does the EB status (hESCs and iPSCs; ROCK inhibitor present (1 μM H1152 or 10 μM Y27632), 0.5% PVA present) read?
**A.** Formed

**Q.** What about the EB status (hESCs and iPSCs; ROCK inhibitor present, PVA absent) of the same molecule?
**A.** Formed

**Q.** And the “potency relative to HA-100” value (ROCK)?
**A.** approximately ten-fold
